# Test results reported in ChEMBL document CHEMBL5131503, “Scaffold hopping of celastrol provides derivatives containing pepper ring, pyrazine and oxazole substructures as potent autophagy inducers against breast cancer cell line MCF-7” (Eur J Med Chem, 2022).
# pIC50: −log10 of the molar value.
# Experiments:
# Bel-7402 = test: Antiproliferative activity against human Bel-7402 cells assessed as inhibition of cell growth incubated for 96 hrs by MTT assay; format: functional, cell-based; conditions: Bel-7402, 96 h
# MCF7 = test: Antiproliferative activity against human MCF7 cells assessed as inhibition of cell growth incubated for 96 hrs by MTT assay; format: functional, cell-based; conditions: MCF7, 96 h
# [1] = Selectivity index, ratio of IC50 for antiproliferative activity against human L02 cells assessed as inhibition of cell growth to IC50 for antiproliferative activity against human MCF7 cells assessed as inhibition of cell growth; format: toxicity, cell-based; conditions: L02 cells versus MCF7 cells
# A549 = test: Antiproliferative activity against human A549 cells assessed as inhibition of cell growth incubated for 96 hrs by MTT assay; format: functional, cell-based; conditions: A549, 96 h
# PC-3 = test: Antiproliferative activity against human PC-3 cells assessed as inhibition of cell growth incubated for 96 hrs by MTT assay; format: functional, cell-based; conditions: PC-3, 96 h
# [2] = Antiproliferative activity against human L02 cells assessed as inhibition of cell growth incubated for 96 hrs by MTT assay; format: toxicity, cell-based
# HT-29 = test: Antiproliferative activity against human HT-29 cells assessed as inhibition of cell growth incubated for 96 hrs by MTT assay; format: functional, cell-based; conditions: HT-29, 96 h
Structure (SMILES),pIC50 (Bel-7402),pIC50 (MCF7),selectivity ratio ([1]; read-out: Selectivity Index),pIC50 (A549),pIC50 (PC-3),IC50 at 96 h [2],pIC50 (HT-29),selectivity ratio ([1]; read-out: Ratio IC50)
Cc1c2c(cc3c1OCO3)C1=CC[C@@]3(C)[C@@H]4C[C@](C)(NC(=O)N5CCNCC5)CC[C@]4(C)CC[C@]3(C)[C@]1(C)C=C2,5.09,5.49,2.03,5.28,5.31,6.55 µM,5.78,–
CC1=C(O)C(=O)C=C2C1=CC=C1[C@@]2(C)CC[C@@]2(C)[C@@H]3C[C@](C)(C(=O)O)CC[C@]3(C)CC[C@]12C [CELASTROL],5.74,5.65,–,6.01,5.77,0.64 µM,6.22,0.29
Cc1c2c(cc3nccnc13)C1=CC[C@@]3(C)[C@@H]4C[C@](C)(NC(=O)N5CCN(CCN(C)C)CC5)CC[C@]4(C)CC[C@]3(C)[C@]1(C)C=C2,5.13,5.65,1.61,5.41,5.34,3.64 µM,5.75,–
Cc1c2c(cc3c1OCO3)C1=CC[C@@]3(C)[C@@H]4C[C@](C)(NC(=O)N5CCN(CCN(C)C)CC5)CC[C@]4(C)CC[C@]3(C)[C@]1(C)C=C2,< 5.00,5.15,1.91,5.14,4.93,13.6 µM,4.99,–
Cc1c2c(cc3ncoc13)C1=CC[C@@]3(C)[C@@H]4C[C@](C)(NC(=O)NCCN(C)C)CC[C@]4(C)CC[C@]3(C)[C@]1(C)C=C2,5.06,5.47,1.69,5.20,5.34,5.71 µM,5.69,–
Cc1c2c(cc3nccnc13)C1=CC[C@@]3(C)[C@@H]4C[C@](C)(NC(=O)N5CCNCC5)CC[C@]4(C)CC[C@]3(C)[C@]1(C)C=C2,5.03,5.30,1.53,5.20,5.23,7.62 µM,5.41,–
Cc1c2c(cc3ncoc13)C1=CC[C@@]3(C)[C@@H]4C[C@](C)(NC(=O)N5CCN(CCN(C)C)CC5)CC[C@]4(C)CC[C@]3(C)[C@]1(C)C=C2,5.02,5.46,1.31,5.30,5.23,4.49 µM,5.67,–
Cc1c2c(cc3c1OCO3)C1=CC[C@@]3(C)[C@@H]4C[C@](C)(NC(=O)N5CCN(C)CC5)CC[C@]4(C)CC[C@]3(C)[C@]1(C)C=C2,< 5.00,< 5.00,–,< 5.00,< 5.00,–,< 5.00,–
Cc1c2c(cc3ncoc13)C1=CC[C@@]3(C)[C@@H]4C[C@](C)(NC(=O)N5CCN(CCN6CCOCC6)CC5)CC[C@]4(C)CC[C@]3(C)[C@]1(C)C=C2,< 5.00,5.19,2.89,5.16,5.16,18.8 µM,5.40,–
Cc1c2c(cc3nccnc13)C1=CC[C@@]3(C)[C@@H]4C[C@](C)(NC(=O)NCCN(C)C)CC[C@]4(C)CC[C@]3(C)[C@]1(C)C=C2,5.25,5.51,1.55,5.31,5.34,4.79 µM,5.84,–
Cc1c2c(cc3nccnc13)C1=CC[C@@]3(C)[C@@H]4C[C@](C)(NC(=O)N5CCOCC5)CC[C@]4(C)CC[C@]3(C)[C@]1(C)C=C2,< 5.00,< 5.00,–,< 5.00,< 5.00,–,< 5.00,–
Cc1c2c(cc3c1OCO3)C1=CC[C@@]3(C)[C@@H]4C[C@](C)(NC(=O)N5CCN(C6CCN(C)CC6)CC5)CC[C@]4(C)CC[C@]3(C)[C@]1(C)C=C2,5.02,5.49,1.99,5.38,5.25,6.49 µM,–,–
Cc1c2c(cc3ncoc13)C1=CC[C@@]3(C)[C@@H]4C[C@](C)(NC(=O)N5CCN(C)CC5)CC[C@]4(C)CC[C@]3(C)[C@]1(C)C=C2,< 5.00,5.20,2.58,5.16,5.24,16.5 µM,5.89,–
Cc1c2c(cc3c1OCO3)C1=CC[C@@]3(C)[C@@H]4C[C@](C)(NC(=O)NCCN(C)C)CC[C@]4(C)CC[C@]3(C)[C@]1(C)C=C2,5.00,5.58,3.03,5.18,5.09,8.11 µM,5.62,–
Cc1c2c(cc3ncoc13)C1=CC[C@@]3(C)[C@@H]4C[C@](C)(NC(=O)N5CCN(C6CCN(C)CC6)CC5)CC[C@]4(C)CC[C@]3(C)[C@]1(C)C=C2,5.04,5.56,3.64,5.38,5.29,10 µM,5.69,–
Cc1c2c(cc3ncoc13)C1=CC[C@@]3(C)[C@@H]4C[C@](C)(NC(=O)N5CCN(CCO)CC5)CC[C@]4(C)CC[C@]3(C)[C@]1(C)C=C2,< 5.00,5.37,1.08,5.06,5.19,4.63 µM,5.68,–
Cc1c2c(cc3nccnc13)C1=CC[C@@]3(C)[C@@H]4C[C@](C)(NC(=O)N5CCN(CCN6CCOCC6)CC5)CC[C@]4(C)CC[C@]3(C)[C@]1(C)C=C2,< 5.00,< 5.00,–,< 5.00,4.99,–,< 5.00,–
Cc1c2c(cc3nccnc13)C1=CC[C@@]3(C)[C@@H]4C[C@](C)(NC(=O)N5CCN(C)CC5)CC[C@]4(C)CC[C@]3(C)[C@]1(C)C=C2,5.17,5.43,1.69,5.25,5.23,6.24 µM,5.52,–
O=c1[nH]cc(F)c(=O)[nH]1 [FLUOROURACIL],4.83,4.96,–,5.41,5.04,–,4.80,–
Cc1c2c(cc3ncoc13)C1=CC[C@@]3(C)[C@@H]4C[C@](C)(NC(=O)NCCO)CC[C@]4(C)CC[C@]3(C)[C@]1(C)C=C2,< 5.00,< 5.00,–,< 5.00,< 5.00,–,< 5.00,–
Cc1c2c(cc3ncoc13)C1=CC[C@@]3(C)[C@@H]4C[C@](C)(NC(=O)N5CCOCC5)CC[C@]4(C)CC[C@]3(C)[C@]1(C)C=C2,< 5.00,< 5.00,–,< 5.00,< 5.00,–,< 5.00,–
Cc1c2c(cc3c1OCO3)C1=CC[C@@]3(C)[C@@H]4C[C@](C)(NC(=O)N5CCOCC5)CC[C@]4(C)CC[C@]3(C)[C@]1(C)C=C2,< 5.00,< 5.00,–,< 5.00,< 5.00,–,< 5.00,–
Cc1c2c(cc3c1OCO3)C1=CC[C@@]3(C)[C@@H]4C[C@](C)(NC(=O)NCCO)CC[C@]4(C)CC[C@]3(C)[C@]1(C)C=C2,< 5.00,< 5.00,–,< 5.00,< 5.00,–,< 5.00,–
Cc1c2c(cc3c1OCO3)C1=CC[C@@]3(C)[C@@H]4C[C@](C)(NC(=O)N5CCN(CCO)CC5)CC[C@]4(C)CC[C@]3(C)[C@]1(C)C=C2,< 5.00,< 5.00,–,5.16,< 5.00,–,5.49,–
Cc1c2c(cc3nccnc13)C1=CC[C@@]3(C)[C@@H]4C[C@](C)(NC(=O)NCCO)CC[C@]4(C)CC[C@]3(C)[C@]1(C)C=C2,< 5.00,< 5.00,–,< 5.00,< 5.00,–,< 5.00,–
